Results from US20240199676A1, “ANTIVIRAL COMPOUNDS AND METHODS OF MAKING AND USING THE SAME” (Gilead Sciences, Inc., priority 2022, published 2024).

Assays:
[1] = tested on: Respiratory syncytial virus recombinant with luciferase (RSV-Luc5) in HEp-2 cells; assay: HEp-2 RSV-Luc5 384-well Assay (EC50 RSVFLUC Hep2-384 v2, Ex. V); assay type: cell-based; settings: human respiratory syncytial virus, HEp-2, 72 h, read-out: EC50 RSV FLuc Hep-2 384 V2 (per Ex. V)
Text: Example V: HEp-2 RSV-Luc5 384-well Assay (EC50 RSVFLUC Hep2-384 v2)
HEp-2 cell line was purchased from ATCC (Manassas, VA Cat #CCL-23) and maintained in Dulbecco's […] (DMEM) (Corning, New York, NY, Cat #15-018CM) supplemented with 10% fetal bovine serum (FBS) (Hyclone, Logan, UT, Cat #SH30071-03) and 1× Penicillin-Streptonycin-L-Glutamine (Corning, New York, NY, Cat #30-009-CI). Cells were passaged 2 times per week to maintain sub-confluent densities and were used for experiments at passage 5-20. Respiratory syncytial virus recombinant with luciferase (RSV-Luc5) (≥1 ×107 TCID50/ml) was purchased from Microbiologics (Saint Cloud, MN). Viral replication was determined in HEp-2 cells in the following manner.
(§1) Compounds are prepared in 100% DMSO in 384-well polypropylene plates (Greiner, Monroe, NC, Cat #784201) with 8 compounds per plate in grouped replicates of 4 at 10 serially diluted concentrations (1:3). The serially diluted compounds were transferred to low dead volume Echo plates (Labcyte, Sunnyvale, CA, Cat #LP-0200).
The test compounds were spotted to 384-well assay plates (Greiner, Monroe, NC, Cat#781091) at 200 nL per well. HEp-2 cells were harvested and suspended in DMEM (supplemented with 10% FBS and 1× Penicillin-Streptonycin-L-Glutamine) and seeded to the pre-spotted assay plates at 4,000 cells per well in 30 μL. RSV-Luc5 viruses were diluted in DMEM (supplemented with 10% FBS and 1× Penicillin-Streptomycin-L-Glutamine) at 200,000 Infectious Units (IU) per mL and 10 μL per well was added to the assay plates containing cells and compounds, for an MOI=0.5. The assay plates were incubated for 3 days at 37° C. and 5% CO2. At the end of incubation, One-Glo reagent (Promega, Madison, WI, Cat #E6120) was prepared. The assay plates and One-Glo reagent were equilibrated to room temperature for at least 15 minutes. 40 μL per well of One-Glo reagent was added and the plates were incubated at room temp for 15 minutes before reading the luminescence signal on an EnVision multimode plate reader (Perkin Elmer, Waltham, MA). Remdesivir was used as positive control and DMSO was used as negative control. Values were normalized to the positive and negative controls (as 0% and 100% replication, respectively) and data was fitted using non-linear regression analysis by Gilead's dose response tool. The EC50 value for each compound was then determined as the concentration reducing the viral replication by 50%.

[2] = tested on: Human Rhinovirus 1B (HRV1B) in H1-HeLa cells; assay: H1-HeLa HRV-CTG 384-well Assay (Ex. Y), HRV1B; assay type: cell-based; settings: Rhinovirus A, 96 h; H1-HeLa cells, HRV1B MOI 0.5, 4 days, Celltiter-Glo; read-out: EC50 H1-HeLa_HRV1B_HRV-CTG 384-well Assay (per Ex. Y)
Text: Example Y: H1-HeLa HRV-CTG 384-well Assay
H1-Hela cell line (ATCC, Manassas, VA, Cat #CRL-1958) was maintained in Dulbecco's […] (DMEM) (Corning, New York, NY, Cat #15-018CM) supplemented with 10% fetal bovine serum (FBS) (Hyclone, Logan, UT, Cat #SH30071-03), and 1× Penicillin-Streptomycin-L-Glutamine (Corning, New York, NY, Cat #30-009-CI). Cells were passaged 2 times per week to maintain sub-confluent densities and were used for experiments at passage 5-30. The Human Rhinovirus 1B (HRV1B) (ATCC, Manassas, VA, Cat #VR-1645) , Human Rhinovirus 14 (HRV14) (ATCC, Manassas, VA, Cat #VR-284), and Human Rhinovirus 16 (HRV16) (ATCC, Manassas, VA, Cat #BR-283) was obtained through ATCC. Viral infection was monitored by determining viability of H1-HeLa cells as described below.
as §1, with “Test molecules” for “Compounds”
The test compounds were spotted to 384-well assay plates (Greiner, Monroe, NC, Cat#781091) at 200 nL per well using an Echo acoustic dispenser (Labcyte, Sunnyvale, CA). H1-HeLa cells were harvested and suspended in DMEM (supplemented with 2% FBS and 1× Penicillin-Streptomycin-L-Glutamine) and seeded to the pre-spotted assay plates at 5,000 cells per well in 30 μL. HRV1B, HRV14, and HRV16 was diluted in DMEM (supplemented with 2% FBS and 1× Penicillin-Streptomycin-L-Glutamine) at 97.1 million Infectious Units (IU) per mL, 151 million IU per mL and 221 million IU per mL respectively. 10 μL of virus per well was added to the assay plates containing cells and compounds, for an MOI of 0.5, 1.0, and 0.25 respectively. The assay plates were incubated for 4 days at 37° C. and 5% CO2. At the end of incubation, Celltiter-Glo (Promega, Madison, WI, Cat #(Ga7573) was prepared. The assay plates and Celltiter-Glo reagent were equilibrated to room temperature for at least 15 minutes. 40 μL per well of Celltiter-Glo reagent was added and the plates were incubated at room temperature for 15 minutes before reading the luminescence signal on an EnVision multimode plate reader (Perkin Elmer, Waltham, MA). Rupintrivir was used as positive control and DMSO was used as negative control. Values were normalized to the positive and negative controls (as 0% and 100% replication, respectively) and data was fitted using non-linear regression analysis by Gilead's dose response tool. The EC50 value for each compound was defined as the concentration reducing viral replication by 50%.

## N#C[C@]1(COC(=O)C2CCCCC2)O[C@@H](c2ccc3c(N)ncnn23)[C@H](O)[C@@H]1O [Compound 19, ((2R,3S,4R,5S)-5-(4-aminopyrrolo[2,1-f][1,2,4]triazin-7-yl)-2-cyano-3,4-dihydroxytetrahydrofuran-2-yl)methyl cyclohexanecarboxylate]
[1]
  EC50: 18 µM
[2]
  EC50: 4.11 µM

## [H]/N=c1/c2ccc([C@@H]3O[C@](C#N)(CO)[C@@H](O)[C@H]3O)n2ncn1COC(=O)C(C)C [Compound 34, (7-((2S,3R,4S,5R)-5-cyano-3,4-dihydroxy-5-(hydroxymethyl)tetrahydrofuran-2-yl)-4-iminopyrrolo[2,1-f][1,2,4]triazin-3(4H)-yl)methyl isobutyrate]
[1]
  EC50: > 50 µM
[2]
  EC50: 28.7 µM

## CC(C)C(=O)OC[C@@]1(C#N)O[C@@H](c2ccc3c(N)ncnn23)[C@H](O)[C@@H]1O [Compound 1, ((2R,3S,4R,5S)-5-(4-aminopyrrolo[2,1-f][1,2,4]triazin-7-yl)-2-cyano-3,4-dihydroxytetrahydrofuran-2-yl)methyl isobutyrate]
[1]
  EC50: 15 µM
[2]
  EC50: 3.05 µM

## N#C[C@]1(COC(=O)C2CCC2)O[C@@H](c2ccc3c(N)ncnn23)[C@H](O)[C@@H]1O [Compound 8, ((2R,3S,4R,5S)-5-(4-aminopyrrolo[2,1-f][1,2,4]triazin-7-yl)-2-cyano-3,4-dihydroxytetrahydrofuran-2-yl)methyl cyclobutanecarboxylate]
[1]
  EC50: 14.9 µM
[2]
  EC50: 3.34 µM

## N#C[C@]1(COC(=O)[C@H]2CCC(=O)O2)O[C@@H](c2ccc3c(N)ncnn23)[C@H](O)[C@@H]1O [Compound 25, ((2R,3S,4R,5S)-5-(4-aminopyrrolo[2,1-f][1,2,4]triazin-7-yl)-2-cyano-3,4-dihydroxytetrahydrofuran-2-yl)methyl (R)-5-oxotetrahydrofuran-2-carboxylate]
[1]
  EC50: 10.3 µM
[2]
  EC50: 3.13 µM

## CC(C)[C@H](N)C(=O)OC[C@@]1(C#N)O[C@@H](c2ccc3c(N)ncnn23)[C@H](O)[C@@H]1O [Compound 12, ((2R,3S,4R,5S)-5-(4-aminopyrrolo[2,1-f][1,2,4]triazin-7-yl)-2-cyano-3,4-dihydroxytetrahydrofuran-2-yl)methyl L-valinate]
[1]
  EC50: 19.2 µM
[2]
  EC50: 6.5 µM

## N#C[C@]1(COC(=O)CC2CCC2)O[C@@H](c2ccc3c(N)ncnn23)[C@H](O)[C@@H]1O [Compound 16, ((2R,3S,4R,5S)-5-(4-aminopyrrolo[2,1-f][1,2,4]triazin-7-yl)-2-cyano-3,4-dihydroxytetrahydrofuran-2-yl)methyl 2-cyclobutylacetate]
[1]
  EC50: 18.3 µM
[2]
  EC50: 3.14 µM

## CC(C)(C)CCC(=O)OC[C@@]1(C#N)O[C@@H](c2ccc3c(N)ncnn23)[C@H](O)[C@@H]1O [Compound 36, ((2R,3S,4R,5S)-5-(4-aminopyrrolo[2,1-f][1,2,4]triazin-7-yl)-2-cyano-3,4-dihydroxytetrahydrofuran-2-yl)methyl 4,4-dimethylpentanoate]
[1]
  EC50: 11.8 µM
[2]
  EC50: 3.1 µM

## CCCC(=O)OC[C@@]1(C#N)O[C@@H](c2ccc3c(N)ncnn23)[C@H](O)[C@@H]1O [Compound 6, ((2R,3S,4R,5S)-5-(4-aminopyrrolo[2,1-f][1,2,4]triazin-7-yl)-2-cyano-3,4-dihydroxytetrahydrofuran-2-yl)methyl butyrate]
[1]
  EC50: 16.8 µM
[2]
  EC50: 4.11 µM

## CC(C)(C)CC(=O)Nc1ncnn2c([C@@H]3O[C@](C#N)(COC(=O)CC(C)(C)C)[C@@H](O)[C@H]3O)ccc12 [Compound 26, ((2R,3S,4R,5S)-2-cyano-5-(4-(3,3-dimethylbutanamido)pyrrolo[2,1-f][1,2,4]triazin-7-yl)-3,4-dihydroxytetrahydrofuran-2-yl)methyl 3,3-dimethylbutanoate]
[1]
  EC50: 46.8 µM
[2]
  EC50: 50 µM

## CC(=O)OC[C@@]1(C#N)O[C@@H](c2ccc3c(N)ncnn23)[C@H](OC(C)=O)[C@@H]1OC(C)=O [Compound 28, (2R,3S,4S,5S)-2-(acetoxymethyl)-5-(4-aminopyrrolo[2,1-f][1,2,4]triazin-7-yl)-2-cyanotetrahydrofuran-3,4-diyl diacetate]
[1]
  EC50: 15.9 µM
[2]
  EC50: 9.45 µM

## N#C[C@]1(COC(=O)C2CCCC2)O[C@@H](c2ccc3c(N)ncnn23)[C@H](O)[C@@H]1O [Compound 18, ((2R,3S,4R,5S)-5-(4-aminopyrrolo[2,1-f][1,2,4]triazin-7-yl)-2-cyano-3,4-dihydroxytetrahydrofuran-2-yl)methyl cyclopentanecarboxylate]
[1]
  EC50: 23.3 µM
[2]
  EC50: 3.03 µM

## CC1(CC(=O)OC[C@@]2(C#N)O[C@@H](c3ccc4c(N)ncnn34)[C@H](O)[C@@H]2O)CCC1 [Compound 33, ((2R,3S,4R,5S)-5-(4-aminopyrrolo[2,1-f][1,2,4]triazin-7-yl)-2-cyano-3,4-dihydroxytetrahydrofuran-2-yl)methyl 2-(1-methylcyclobutyl)acetate]
[1]
  EC50: 23.4 µM
[2]
  EC50: 35.1 µM

## N#C[C@]1(COC(=O)c2ccccc2)O[C@@H](c2ccc3c(N)ncnn23)[C@H](O)[C@@H]1O [Compound 2, ((2R,3S,4R,5S)-5-(4-aminopyrrolo[2,1-f][1,2,4]triazin-7-yl)-2-cyano-3,4-dihydroxytetrahydrofuran-2-yl)methyl benzoate]
[1]
  EC50: 36.8 µM
[2]
  EC50: 9.6 µM

## CC(=O)OC[C@@]1(C#N)O[C@@H](c2ccc3c(NC(=O)C(C)C)ncnn23)[C@H](O)[C@@H]1O [Compound 23, ((2R,3S,4R,5S)-2-cyano-3,4-dihydroxy-5-(4-isobutyramidopyrrolo[2,1-f][1,2,4]triazin-7-yl)tetrahydrofuran-2-yl)methyl acetate]
[1]
  EC50: 33.1 µM
[2]
  EC50: 33.5 µM

## CC1(C)CC(C(=O)OC[C@@]2(C#N)O[C@@H](c3ccc4c(N)ncnn34)[C@H](O)[C@@H]2O)C1 [Compound 17, ((2R,3S,4R,5S)-5-(4-aminopyrrolo[2,1-f][1,2,4]triazin-7-yl)-2-cyano-3,4-dihydroxytetrahydrofuran-2-yl)methyl 3,3-dimethylcyclobutane-1-carboxylate]
[1]
  EC50: 19.7 µM
[2]
  EC50: 3.2 µM
